Consider 47 molecules from ChEMBL document CHEMBL1201862, “PubChem BioAssay data set” (2004).

Molecules are shown by their SMILES. Active and inactive are the calls of the source. A value given as a limit tells only on which side of the number the result lay.

Series [1] has as its target T1, Cytochrome P450 1A2 (Homo sapiens, UniProt P05177).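 Also: PubChem cytochrome P450 panel assay, CYP1A2 panel member.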
T1 sequence (P05177 whole entry): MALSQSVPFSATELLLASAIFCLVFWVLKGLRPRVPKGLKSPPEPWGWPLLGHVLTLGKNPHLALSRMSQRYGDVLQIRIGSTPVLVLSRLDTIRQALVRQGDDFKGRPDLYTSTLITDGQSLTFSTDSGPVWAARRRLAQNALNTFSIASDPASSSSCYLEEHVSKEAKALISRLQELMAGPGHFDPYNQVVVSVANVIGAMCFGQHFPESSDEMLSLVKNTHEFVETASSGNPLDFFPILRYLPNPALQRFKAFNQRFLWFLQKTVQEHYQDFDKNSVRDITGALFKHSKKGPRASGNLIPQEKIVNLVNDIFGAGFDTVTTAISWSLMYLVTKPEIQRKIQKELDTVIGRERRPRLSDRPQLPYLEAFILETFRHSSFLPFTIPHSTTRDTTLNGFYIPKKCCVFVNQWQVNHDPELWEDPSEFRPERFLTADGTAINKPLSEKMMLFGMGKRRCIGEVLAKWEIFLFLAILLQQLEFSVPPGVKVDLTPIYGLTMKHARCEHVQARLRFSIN

Series [2] addresses Cytochrome P450 2C9 (Homo sapiens, UniProt P11712).
Series [3] has as its target Cytochrome P450 2D6 (Homo sapiens, UniProt P10635).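 Also: CYP2D6 member of a cytochrome P450 panel assay.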
For series [4], the target named is T2, Rac GTPase-activating protein 1 (Homo sapiens, UniProt Q9H0H5).
T2 sequence (Q9H0H5 whole entry): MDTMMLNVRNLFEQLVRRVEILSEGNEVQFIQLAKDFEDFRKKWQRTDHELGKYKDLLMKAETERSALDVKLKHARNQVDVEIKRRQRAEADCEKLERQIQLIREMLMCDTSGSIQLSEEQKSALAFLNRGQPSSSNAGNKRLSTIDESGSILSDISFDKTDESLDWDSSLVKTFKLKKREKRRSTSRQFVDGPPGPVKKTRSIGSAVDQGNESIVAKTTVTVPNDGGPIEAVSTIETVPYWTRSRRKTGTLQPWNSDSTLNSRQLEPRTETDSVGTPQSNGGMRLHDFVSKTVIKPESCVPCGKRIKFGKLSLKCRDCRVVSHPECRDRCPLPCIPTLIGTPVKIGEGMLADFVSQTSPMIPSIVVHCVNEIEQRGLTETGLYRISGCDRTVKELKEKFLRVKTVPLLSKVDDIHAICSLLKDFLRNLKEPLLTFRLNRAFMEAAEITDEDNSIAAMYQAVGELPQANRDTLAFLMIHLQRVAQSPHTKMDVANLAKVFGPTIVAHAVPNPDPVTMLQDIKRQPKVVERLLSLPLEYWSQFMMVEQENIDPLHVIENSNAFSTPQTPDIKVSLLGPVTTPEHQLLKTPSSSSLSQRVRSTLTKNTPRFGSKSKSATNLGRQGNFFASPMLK
The experiment in a line: blockers of MgcRacGAP-driven Rac1 GTP hydrolysis – biochemical, ADP Hunter fluorescence, primary and confirmatory, confirmation (AID 624330). In kind it is functional.

Series [5] concerns the target Cytochrome P450 2C19 (Homo sapiens, UniProt P33261). Briefly: Cytochrome panel assay with activity outcomes. Panel member name: p450-cyp2c19 Compounds with AC50 equal or less than 10 uM are considered active. The format is functional.
The nature of series [6]: NIH3T3 cell viability loss – ATP luminescence, mouse fibroblasts, counter-screen, dose response (AID 2010).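 Also: cells exposed to compound for about 90 hours before reading.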 The format is functional, cell-based.
Series [7] can be described thus: Trypanosoma cruzi growth suppression in host cells – NIH3T3 host cells, beta-gal luminescence, confirmation (AID 2044).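 Also: intracellular parasites grown in NIH/3T3 mouse fibroblasts as host cells; luminescent beta-galactosidase reporter signal from transgenic T. cruzi replicating inside host cells; inhibitors lower the luminescence signal.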 In kind it is functional, cell-based.

Sequence of Cytochrome P450 2C9 (P11712 whole entry): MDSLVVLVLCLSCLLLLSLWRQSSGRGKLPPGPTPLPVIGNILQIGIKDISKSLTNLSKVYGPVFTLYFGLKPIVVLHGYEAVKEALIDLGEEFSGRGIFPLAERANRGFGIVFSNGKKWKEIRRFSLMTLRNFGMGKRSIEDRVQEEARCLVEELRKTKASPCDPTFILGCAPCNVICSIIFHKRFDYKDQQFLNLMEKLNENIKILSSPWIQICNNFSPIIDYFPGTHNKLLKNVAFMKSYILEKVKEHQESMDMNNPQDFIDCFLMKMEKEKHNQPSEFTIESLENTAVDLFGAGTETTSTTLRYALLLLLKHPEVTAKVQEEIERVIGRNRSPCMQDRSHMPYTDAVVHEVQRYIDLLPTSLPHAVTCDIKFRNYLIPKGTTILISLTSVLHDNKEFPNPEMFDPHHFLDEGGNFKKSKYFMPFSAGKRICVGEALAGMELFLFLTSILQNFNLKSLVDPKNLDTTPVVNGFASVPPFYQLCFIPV
Sequence of Cytochrome P450 2D6 (P10635 whole entry): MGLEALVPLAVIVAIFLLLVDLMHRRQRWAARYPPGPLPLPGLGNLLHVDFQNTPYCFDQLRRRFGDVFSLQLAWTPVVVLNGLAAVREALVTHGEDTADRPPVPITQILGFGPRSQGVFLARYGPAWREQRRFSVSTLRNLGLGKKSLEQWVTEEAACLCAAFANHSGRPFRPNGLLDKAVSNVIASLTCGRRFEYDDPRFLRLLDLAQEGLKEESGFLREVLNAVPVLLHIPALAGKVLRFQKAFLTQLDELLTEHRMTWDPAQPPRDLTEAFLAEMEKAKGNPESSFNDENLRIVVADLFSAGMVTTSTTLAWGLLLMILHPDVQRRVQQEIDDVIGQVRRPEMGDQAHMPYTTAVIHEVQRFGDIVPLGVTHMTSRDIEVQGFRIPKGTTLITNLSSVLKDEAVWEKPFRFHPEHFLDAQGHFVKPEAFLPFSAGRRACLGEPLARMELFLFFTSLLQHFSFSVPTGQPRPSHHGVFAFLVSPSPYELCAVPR
Sequence of Cytochrome P450 2C19 (P33261 whole entry): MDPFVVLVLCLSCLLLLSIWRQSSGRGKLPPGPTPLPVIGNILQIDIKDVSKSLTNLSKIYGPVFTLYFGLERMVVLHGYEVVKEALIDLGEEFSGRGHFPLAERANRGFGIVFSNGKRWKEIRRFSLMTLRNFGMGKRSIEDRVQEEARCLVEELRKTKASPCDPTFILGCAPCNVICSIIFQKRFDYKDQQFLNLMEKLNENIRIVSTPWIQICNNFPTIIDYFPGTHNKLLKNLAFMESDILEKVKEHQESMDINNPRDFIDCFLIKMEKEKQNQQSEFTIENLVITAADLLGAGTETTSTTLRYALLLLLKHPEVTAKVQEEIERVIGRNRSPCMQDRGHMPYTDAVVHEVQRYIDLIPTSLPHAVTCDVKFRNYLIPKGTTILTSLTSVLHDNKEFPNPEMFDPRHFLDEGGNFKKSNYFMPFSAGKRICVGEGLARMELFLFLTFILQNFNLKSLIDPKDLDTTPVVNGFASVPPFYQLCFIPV

By AC50 is commonly meant the midpoint of the concentration-response curve, whichever way the signal moves. Turning to `O=C(c1ccncc1)N1CCC2(CC1)CCN(c1cccc(-c3ccccc3)c1)CC2`, the AC50 in series [1] is 20 µM (inconclusive); in series [2], 12.6 µM (inconclusive).

In the case of `Cc1cc(C)cc(-n2c(C)cc(C=C(C#N)C#N)c2C)c1`, the AC50 in series [2] is 2.51 µM (inconclusive).

Regarding `Cn1cccc1C(=O)N1CCC2(CC1)CCN(c1ccncc1)CC2`, the AC50 was 25.1 µM (inconclusive) in series [3] and 15.8 µM (inconclusive) in series [1].

The term IC50 denotes the concentration at which inhibition is half-maximal. For the molecule `CC(C)Oc1ccc(OCCn2c(S)nc3c(N)ncnc32)cc1`, the IC50 in series [4] was 95.3 µM (active).

In the case of `c1ccc2c(Nc3ccncc3)nc(-c3ccoc3)nc2c1`, the AC50 in series [3] is 15.8 µM (inconclusive).

On to `C[C@@H](C(=O)Nc1ccc2ccccc2c1)[C@@H]1C[C@@]1(C)[C@@H](NS(=O)(=O)c1ccc(-c2ccccc2)cc1)c1ccccc1`, for which the AC50 in series [1] was 12.6 µM (inconclusive).

Turning to `COc1ccc(NCc2nnc(SCc3ccccc3)n2-c2ccc(OC)cc2)cc1`, the AC50 in series [1] is 17.8 µM (inconclusive); in series [2] it was 12.6 µM (inconclusive).

With `COc1ccccc1CNc1cc(-c2cccnc2)ncn1`, the AC50 in series [5] (read-out: AC50) was 15.8 µM (inconclusive).

For the molecule `Cc1cccn2c(NCc3ccc4c(c3)OCO4)c(-c3ccc(O)cc3)nc12`, the IC50 in series [4] is 68.7 µM (active).

`COc1ccc(Cc2nnc(NC(=O)c3ccco3)s2)cc1`: the AC50 in series [1] is 11.2 µM (inconclusive).

`Cc1ccc2c(CC(=O)OCc3cc(=O)n4c(n3)sc3ccccc34)coc2c1`: in series [3], the AC50 is 31.6 µM (inconclusive).

As to `O=C(c1cnccn1)N1CCC2(CCCN(c3cccc(-c4ccccc4)c3)C2)CC1`, the AC50 in series [5] (read-out: AC50) is 7.94 µM (inconclusive).

As for `c1ccc2c(c1)ncn2Cc1nnc2sc(-c3ccc4c(c3)OCO4)nn12`, the AC50 is 15.8 µM (inconclusive) in series [3], 1.12 µM (inconclusive) in series [1] and 15.8 µM (inconclusive) in series [5] (read-out: AC50).

In the case of `COc1ccc(-n2ncc3c(NCC4CCCO4)ncnc32)cc1` (stereo not drawn), the values for the AC50 in series [2] and in series [5] (read-out: AC50) were 12.6 µM (inconclusive) and 8.91 µM (inconclusive), respectively.

As to `Cc1ccccc1-c1cncnc1NCCN1CCOCC1`, the AC50 in series [3] is 39.8 µM (inconclusive); in series [1], 15.8 µM (inconclusive).

As a reminder, the EC50 is the midpoint of the concentration-response curve. `COC(=O)C1=C(N)N(c2ccccc2C(F)(F)F)C2=C(C(=O)CCC2)C1c1ccc2c(c1)OCO2` (stereo not drawn): the EC50 in series [6] was > 60 µM (not active); in series [7], 1.24 µM (active). The AC50 in series [1] was 31.6 µM (inconclusive).

Regarding `COc1cc(CNCc2cc(OC)c(OC)c(OC)c2)cc(OC)c1`, the IC50 in series [4] is 203 µM (active).

In the case of `O=C(CSc1nc2ccccc2s1)NNC(=S)Nc1ccc(Br)cc1`, the AC50 in series [3] is 3.55 µM (inconclusive).

Take `O=C(ON=C1CCN(S(=O)(=O)c2ccccc2)CC1)c1ccccc1`: in series [2], the AC50 is 31.6 µM (inconclusive).

In the case of `COC(=O)CSc1nnc(CNc2ccc(Cl)cc2)n1-c1ccccc1`, the AC50 in series [2] is 22.4 µM (inconclusive).

Turning to `CN(C)C(=O)c1ccc(-c2nc(NCc3ccccc3)c3ccccc3n2)cc1`, the results for the AC50 in series [3] and in series [5] (read-out: AC50) were 39.8 µM (inconclusive) and 25.1 µM (inconclusive), respectively.

Regarding `CC(C(=O)NCC(=O)Nc1ccc(F)c(F)c1F)N1CCN(c2ccc(O)cc2)CC1` (stereo not drawn), the IC50 in series [4] is 42.5 µM (active).

In the case of `Nc1nc(N)c(CCCCc2ccccc2)c(N)n1`, the AC50 in series [3] is 3.98 µM (inconclusive).

In the case of `Fc1ccc(-c2ccnc3nc(N4CCOCC4)nn23)cc1`, the AC50 in series [5] (read-out: AC50) was 3.55 µM (inconclusive).

With `COc1cc(-c2nc3cnccn3c2Nc2c(C)cccc2C)ccc1O`, the IC50 in series [4] was 46.4 µM (active).

Take `Cc1cc(OCc2nc3ccccc3s2)ccc1N`: in series [4], the IC50 was 60.7 µM (active).

On to `Cn1c(=O)c(C(=O)CN2CCOCC2)c(N)n(Cc2ccccc2)c1=O`, for which the concentration at half-maximal activity (AC50) in series [3] is 7.94 µM (inconclusive); in series [5] (read-out: AC50) it was 39.8 µM (inconclusive).

Take `Cc1ccc(C(=O)Oc2cc(C)n(C)c(=O)c2)cc1`: the results for the AC50 in series [1] and in series [2] were 25.1 µM (inconclusive) and 11.2 µM (inconclusive), respectively.

For the molecule `CC(NC(=O)c1ccccc1)c1nc2ccccc2n1Cc1ccccc1F` (stereo not drawn), in series [1], the AC50 is 28.2 µM (inconclusive).

`CN(CCCCCCN(C)Cc1ccccc1O)Cc1ccccc1O`: in series [4], the half-maximal inhibitory concentration (IC50) is 73.6 µM (active).

In the case of `Cc1noc(C)c1-c1cc(N(C)Cc2ccco2)ncn1`, the AC50 in series [5] (read-out: AC50) is 15.8 µM (inconclusive).

For `COC(=O)[C@@]1(Cc2ccccc2)[C@H]2c3cc(C(=O)N4CCCC4)n(Cc4ccccn4)c3C[C@H]2CN1C(=O)c1ccccc1`, the AC50 in series [3] is 39.8 µM (inconclusive).

In the case of `Cc1ccccc1-c1cc(NCc2ccccc2)ncn1`, in series [3], the AC50 was 31.6 µM (inconclusive).

Turning to `CN(C)c1ccc(-c2cncnc2-n2ccnc2)cc1`, the AC50 in series [3] is 39.8 µM (inconclusive).

Consider `COc1ccccc1NC(=O)CN1CCN(CC(=O)Nc2ccc(OCc3ccccc3)cc2)CC1`, for which the AC50 is 20 µM (inconclusive) in series [3] and 10 µM (inconclusive) in series [1].

On to `Cc1cccn2c(S)nnc12`, for which, in series [4], the IC50 is 17.2 µM (active).

For `COc1ccc(C(=O)NC2CC3CCCC(C2)N3CC(C)C)cc1OC` (stereo not drawn), the AC50 in series [2] was 22.4 µM (inconclusive).

As to `O=C(NCc1ccccc1)/C(=C\c1ccc(O)cc1)NC(=O)c1ccco1`, the IC50 in series [4] was 141 µM (active).

As for `CN1CCN(C(=O)C(C(=O)c2ccc(F)cc2)n2ccccc2=O)CC1` (stereo not drawn), the AC50 result in series [5] is recorded as “inconclusive”.

Consider `CCOc1ccccc1C1C(C(N)=O)=C(C)Nc2nc(-c3ccc(OC)cc3)nn21` (stereo not drawn), for which the AC50 was 1 µM (inconclusive) in series [3], 15.8 µM (inconclusive) in series [1] and 15.8 µM (inconclusive) in series [2].

With `Cn1cc(C(=O)c2cccc(Cl)c2Cl)cc1C(=O)O`, the AC50 in series [2] was 31.6 µM (inconclusive).

`COc1cc(/C=N/NC(=O)c2[nH]nc3c2CCc2ccccc2-3)ccc1O`: the IC50 in series [4] is 54.3 µM (active).

With `COc1cccc(/C=N/NC(=O)c2c(-c3ccccc3)noc2C)c1`, in series [3], the AC50 is 17.8 µM (inconclusive).

Consider `COc1cc(/C=N/NC(=O)c2cccnc2)ccc1OC(=O)c1ccco1`, for which the AC50 is 28.2 µM (inconclusive) in series [2] and 8.91 µM (inconclusive) in series [5] (read-out: AC50).

As to `COc1cc(/C=N/NC(=O)C2CCN(CC(O)COCc3ccccc3)CC2)ccc1O` (stereo not drawn), in series [4], the IC50 was 31.5 µM (active).

`O=c1cc(-c2ccc(O)c(O)c2)oc2cc(O)c([C@@H]3O[C@H](CO)[C@@H](O)[C@H](O)[C@H]3O)c(O)c12` [ISOORIENTIN]: the IC50 in series [4] was 40.9 µM (active).

Turning to `COc1ccccc1N1CCN(CCN(C(=O)C2CCCCC2)c2ccccn2)CC1` [WAY-100,635], the AC50 in series [3] was 31.6 µM (inconclusive).
